Tested on: CENP-I-AID-EGFP fusion protein
Test: Auxin-induced depletion of endogenously tagged CENP-I-AID-EGFP, immunofluorescence microscopy
Format: cell-based
Details: osTIR1-expressing DLD-1 cells, interphase cell; IAA 500 μM for 12 hr; immunofluorescence (FIG. 3)
Method: DLD-1 cell lines were cultured as described previously in Dulbecco's Modified Eagle Medium (DMEM) supplemented with 10% fetal bovine serum (FBS), penicillin/streptomycin and 2 mM L-glutamine. Indole-3-acetic acid (IAA) (15148; Sigma) was dissolved in water and added to cells at a concentration of 500 μM for 12 hr. osTIR1-9Myc was cloned into the pBabe-puro vector and introduced into cell lines using retroviral delivery. Stable integrants were selected in puromycin and single clones isolated using single cell sorting. Western Blot analysis using an antibody raised against the Myc tag was used to determine the expression level of TIR1 protein in different clones. Rapidly growing clones with the high levels of osTIR1 expression were selected for further use. 2.5 ug each of pX330-GFP and the donor plasmid were co-transfected into osTIR1-9Myc expressing cells using Lipofectamine 2000 (Invitrogen) and OptiMEM according to the manufacturer's instructions. 24 h after transfection cells, were transferred to a 20 cm dish, and 48 h later cells were selected in […] G418 (Gibco) and 2 ug/ml puromycin to maintain the osTIR1. Colonies were harvested after 2 weeks and FACS sorted to isolate individual cells. […]

`O=C(O)Cc1c[nH]c2ccccc12` [IAA, Indole-3-acetic acid] was tested, and the “CENP-I-AID-EGFP fusion protein at kinetochores upon addition of IAA” value was “no longer observed” and the “associated proteins such as CENP-T at kinetochores upon addition of IAA” value was “lost from kinetochores”.
